We go through 22 molecules from patent US20220324835A1 (Nurix Therapeutics, Inc., priority 2018, published 2022).

A word on the Kd: it is the equilibrium constant for the complex coming apart. Low values mean a tighter complex, high ones a looser complex. As usually defined, the IC50 is the concentration needed to halve the response being measured.

In assay [1] the target is Cbl-b (residues 36-427) (Homo sapiens, UniProt Q13191). In words: Cbl-b binding assay (SPR, Biacore T200). The following applies: 20° C., 1:1 binding model. A digest of the protocol: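 Affinities derived from global 1:1 steady-state or kinetic fits of double-referenced, solvent-corrected SPR data, 20 °C, NeutrAvidin-capture chip. Compound series (top 100 or 50 μM, 8–10 points) injected 50 s, 90–180 s dissociation. Asterisked values used 50 mM instead of 100 mM NaCl and 30 nM Src kinase.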
(In general: Surface plasmon resonance follows binding to a sensor surface in real time, without labels.)

Assay [2] deals with T1, Cbl-b (Homo sapiens, UniProt Q13191). Description: Cbl-b inhibition assay (Cbl-b activity assay, FRET, Biological Example 1; 100 mM NaCl, 60 nM Src kinase). The following applies: upper bound stated in text lists; read-out: IC50 values in the Cbl-b inhibition assay of Biological Example 1. The assay is classed as biochemical. The essentials:
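Inhibitor activity is measured as reduced terbium-to-fluorescein FRET between streptavidin-terbium on biotinylated Cbl-b and Bodipy-fluorescein ubiquitin carried by an irreversible UbcH5B-Ub conjugate, binding of which depends on Src phosphorylation of Cbl-b.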

In assay [3] the target is T1, Cbl-b. In words: Cbl-b activity assay (Cbl-b inhibition assay), TR-FRET of Cbl-b interaction with UbcH5B-Ub. The assay is classed as biochemical. A digest of the protocol:
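TR-FRET readout of Cbl-b binding to Bodipy-fluorescein N-terminally labeled Ub conjugated to UbcH5B C85K, measured with compound present. After compound incubation, 60 nM Src kinase with 1 mM ATP and 5 mM MgCl2 (final) was added for 1.5 h, then a further 1 h incubation; asterisked values used 50 mM NaCl buffer and 30 nM Src.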
For orientation: In TR-FRET formats the signal depends on donor and acceptor labels being close together.

[4] abbreviates: assay buffer with 100 mM NaCl, 60 nM Src kinase, read-out: Cbl-b activity IC50.

T1 sequence (Q13191 36-427): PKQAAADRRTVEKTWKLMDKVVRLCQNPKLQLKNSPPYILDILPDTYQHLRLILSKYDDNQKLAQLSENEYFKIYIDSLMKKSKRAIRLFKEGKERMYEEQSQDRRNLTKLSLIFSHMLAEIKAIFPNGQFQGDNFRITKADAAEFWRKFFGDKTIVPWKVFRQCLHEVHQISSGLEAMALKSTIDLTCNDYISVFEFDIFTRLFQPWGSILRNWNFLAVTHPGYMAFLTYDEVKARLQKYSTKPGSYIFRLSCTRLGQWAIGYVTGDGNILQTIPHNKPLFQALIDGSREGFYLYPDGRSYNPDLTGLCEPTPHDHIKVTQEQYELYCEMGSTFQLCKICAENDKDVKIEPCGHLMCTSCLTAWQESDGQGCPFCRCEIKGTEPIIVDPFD
Sequence of Cbl-b (residues 36-427) (Q13191 36-427): as above

Molecule `C[C@H](Sc1nncn1C)c1cccc(NC(=O)c2cc(C(=O)N3C[C@@H](O)C[C@H]3C)ccn2)c1` [Compound 152, 4-((2R,4S)-4-hydroxy-2-methylpyrrolidine-1-carbonyl)-N-(3-((S)-1-((4-methyl-4H-1,2,4-triazol-3-yl)thio)ethyl)phenyl)picolinamide] had a dissociation constant Kd in assay [1] of 3 to 10 µM. For the same molecule, the figures for the half-inhibitory concentration (IC50) in assay [2] and in assay [3] (setting [4]) were no more than 10 µM and 3 to 10 µM, respectively.
For `C[C@H](Sc1nncn1C)c1cccc(NC(=O)c2cc(C(=O)N3C[C@H](O)C[C@H]3C)ccn2)c1` [Compound 153, 4-((2R,4R)-4-hydroxy-2-methylpyrrolidine-1-carbonyl)-N-(3-((S)-1-((4-methyl-4H-1,2,4-triazol-3-yl)thio)ethyl)phenyl)picolinamide], the Kd in assay [1] was greater than 10 µM. Further, the IC50 in assay [2] was no more than 10 µM; in assay [3] (setting [4]), 3 to 10 µM.
`C[C@H](Sc1nncn1C)c1cccc(NC(=O)c2cc(C(=O)N3C[C@@H](O)C[C@@H]3C)ccn2)c1` [Compound 154, 4-((2S,4S)-4-hydroxy-2-methylpyrrolidine-1-carbonyl)-N-(3-((S)-1-((4-methyl-4H-1,2,4-triazol-3-yl)thio)ethyl)phenyl)picolinamide] showed a dissociation constant (Kd) in assay [1] greater than 10 µM. Moreover, the figures for the IC50 in assay [2] and in assay [3] (setting [4]) were no more than 10 µM and 3 to 10 µM, respectively.
The molecule `C[C@H](Sc1nncn1C)c1cccc(NC(=O)c2cc(C(=O)N3C[C@H](O)[C@@H](O)C3)ccn2)c1` [Compound 155, 4-[[(3S,4S)-3,4-dihydroxypyrrolidin-1-yl]carbonyl]-N-[3-[(1S)-1-[(4-methyl-4H-1,2,4-triazol-3-yl)sulfanyl]ethyl]phenyl]pyridine-2-carboxamide] showed a dissociation constant (Kd) in assay [1] of 3 to 10 µM. The IC50 was no more than 10 µM in assay [2] and 1 to 3 µM in assay [3] (setting [4]).
On the same counts, the results for `C[C@H](Sc1nncn1C)c1cccc(NC(=O)c2cc(C(=O)NC[C@@H](C)O)ccn2)c1` [Compound 156, N^4-((R)-2-hydroxypropyl)-N^2-(3-((S)-1-((4-methyl-4H-1,2,4-triazol-3-yl)thio)ethyl)phenyl)pyridine-2,4-dicarboxamide] are 3 to 10 µM, no more than 10 µM and 3 to 10 µM.
For `C[C@H](O)CNC(=O)c1ccnc(C(=O)Nc2cccc([C@H](C)Sc3nncn3C)c2)c1` [Compound 157, N^4-((S)-2-hydroxypropyl)-N^2-(3-((S)-1-((4-methyl-4H-1,2,4-triazol-3-yl)thio)ethyl)phenyl)pyridine-2,4-dicarboxamide], the Kd in assay [1] lay within 3 to 10 µM. Moreover, the half-maximal inhibitory concentration (IC50) is no more than 10 µM in assay [2] and 3 to 10 µM in assay [3] (setting [4]).
As to `C[C@H](Sc1nncn1C)c1cccc(NC(=O)c2cc(C(=O)N3CC[C@@H](N(C)C)C3)ccn2)c1` [Compound 159, 4-((R)-3-(dimethylamino)pyrrolidine-1-carbonyl)-N-(3-((S)-1-((4-methyl-4H-1,2,4-triazol-3-yl)thio)ethyl)phenyl)picolinamide], the Kd in assay [1] was 3 to 10 µM. For the same molecule, the values for the IC50 in assay [2] and in assay [3] (setting [4]) were no more than 10 µM and 3 to 10 µM, respectively.
In the case of `C[C@H](Sc1nncn1C)c1cccc(NC(=O)c2cc(C(=O)N3CC[C@H](N(C)C)C3)ccn2)c1` [Compound 160, 4-((S)-3-(dimethylamino)pyrrolidine-1-carbonyl)-N-(3-((S)-1-((4-methyl-4H-1,2,4-triazol-3-yl)thio)ethyl)phenyl)picolinamide], the dissociation constant Kd in assay [1] is 3 to 10 µM. Further, the values for the 50% inhibitory concentration (IC50) in assay [2] and in assay [3] (setting [4]) were no more than 10 µM and 3 to 10 µM, respectively.
The molecule `C[C@@H](Sc1nncn1C)c1cccc(NC(=O)c2cc(C(=O)N3CC[C@H](O)C3)ccn2)c1` [Compound 161, 4-[[(3S)-3-hydroxypyrrolidin-1-yl]carbonyl]-N-[3-[(1R)-1-[(4-methyl-4H-1,2,4-triazol-3-yl)sulfanyl]ethyl]phenyl]pyridine-2-carboxamide] came in with a dissociation constant Kd in assay [1] greater than 10 µM. For the same molecule, the IC50 in assay [2] was no more than 10 µM; in assay [3] (setting [4]), 3 to 10 µM.
Turning to `CC(Sc1nncn1C)c1cccc(N2Cc3ccc(Cl)cc3C2=O)c1` (stereo not shown) [Compound 163, 6-chloro-2-[3-[1-[(4-methyl-1,2,4-triazol-3-yl)sulfanyl]ethyl]phenyl]isoindolin-1-one], in assay [1], the dissociation constant (Kd) lay within 3 to 10 µM. The IC50 in assay [2] is no more than 10 µM; in assay [3] (* assay buffer containing 50 mM NaCl instead of 100 mM NaCl and 30 nM Src kinase instead of 60 nM, read-out: Cbl-b activity IC50 (μM)*), 3 to 10 µM; in assay [3] (setting [4]) it was 3 to 10 µM.
In assay [1], `C[C@H](Sc1nncn1C)c1cccc(N2Cc3cc(Cl)ccc3C2=O)c1` [Compound 164, (S)-5-chloro-2-(3-(1-((4-methyl-4H-1,2,4-triazol-3-yl)thio)ethyl)phenyl)isoindolin-1-one] displayed a Kd of 1 to 3 µM. Moreover, the IC50 in assay [2] is no more than 1 µM; in assay [3] (setting [4]), 0.301 to 1 µM.
On the same counts, the results for `C[C@@H](Sc1nncn1C)c1cccc(N2Cc3c(cccc3C(F)(F)F)C2=O)c1` [Compound 166b, (R)-2-(3-(1-(4-methyl-4H-1,2,4-triazol-3-ylthio)ethyl)phenyl)-4-(trifluoromethyl)isoindolin-1-one] are 3 to 10 µM, no more than 10 µM and 1 to 3 µM.
In the same order, the values of `C[C@@H](Sc1nncn1C)c1cc(F)cc(N2Cc3c(cccc3C(F)(F)F)C2=O)c1` [Compound 168b, 2-[3-fluoro-5-[(1R)-1-[(4-methyl-1,2,4-triazol-3-yl)sulfanyl]ethyl]phenyl]-4-(trifluoromethyl)isoindolin-1-one] are 1 to 3 µM, no more than 10 µM and 1 to 3 µM.
On the same counts, the results for `C[C@H](Sc1nncn1C)c1ccc(F)c(N2Cc3c(cccc3C(F)(F)F)C2=O)c1` [Compound 169, 2-[2-fluoro-5-[(1S)-1-[(4-methyl-1,2,4-triazol-3-yl)sulfanyl]ethyl]phenyl]-4-(trifluoromethyl)isoindolin-1-one] are 1 to 3 µM, no more than 10 µM and 1 to 3 µM.
The molecule `C[C@@H](Sc1nncn1C)c1ccnc(N2Cc3c(cccc3C(F)(F)F)C2=O)c1` [Compound 172b, (R)-2-(4-(1-((4-methyl-4H-1,2,4-triazol-3-yl)thio)ethyl)pyridin-2-yl)-4-(trifluoromethyl)isoindolin-1-one] registered a Kd in assay [1] greater than 10 µM. Also, the IC50 in assay [2] is no more than 10 µM; in assay [3] (setting [4]), 3 to 10 µM.
With `CC(Sc1nncn1C)c1cc(N)nc(N2Cc3c(cccc3C(F)(F)F)C2=O)c1` (stereo not shown) [Compound 175, 2-[6-amino-4-[1-[(4-methyl-1,2,4-triazol-3-yl)sulfanyl]ethyl]-2-pyridyl]-4-(trifluoromethyl)isoindolin-1-one], the dissociation constant (Kd) in assay [1] lay in the range of 3 to 10 µM. In addition, the values for the half-maximal inhibitory concentration (IC50) in assay [2] and in assay [3] (setting [4]) were no more than 10 µM and 3 to 10 µM, respectively.
`CC(CO)Nc1cc(C(C)Sc2nncn2C)cc(N2Cc3c(cccc3C(F)(F)F)C2=O)n1` (stereo not shown) [Compound 176, 2-[6-[(2-hydroxy-1-methyl-ethyl)amino]-4-[1-[(4-methyl-1,2,4-triazol-3-yl)sulfanyl]ethyl]-2-pyridyl]-4-(trifluoromethyl)isoindolin-1-one]: the Kd in assay [1] lay within 1 to 3 µM. In addition, the IC50 was no more than 1 µM in assay [2] and 0.301 to 1 µM in assay [3] (setting [4]).
On the same counts, the results for `CC(Sc1nncn1C)c1cc(NC[C@H](C)O)nc(N2Cc3c(cccc3C(F)(F)F)C2=O)c1` (stereo partly drawn) [Compound 177, 2-[6-[[(2S)-2-hydroxypropyl]amino]-4-[1-[(4-methyl-1,2,4-triazol-3-yl)sulfanyl]ethyl]-2-pyridyl]-4-(trifluoromethyl)iso-indolin-1-one] are 3 to 10 µM, no more than 10 µM and 3 to 10 µM.
In the same order, the values of `CCNc1cc(C(C)Sc2nncn2C)cc(N2Cc3c(cccc3C(F)(F)F)C2=O)n1` (stereo not shown) [Compound 178, 2-[6-(ethylamino)-4-[1-[(4-methyl-1,2,4-triazol-3-yl)sulfanyl]ethyl]-2-pyridyl]-4-(trifluoromethyl)isoindolin-1-one] are 0.301 to 1 µM, no more than 1 µM and 0.301 to 1 µM.
In the same order, the values of `CC(Sc1nncn1C)c1cc(NC2CCOC2)nc(N2Cc3c(cccc3C(F)(F)F)C2=O)c1` (stereo not shown) [Compound 179, 2-(4-(1-((4-methyl-4H-1,2,4-triazol-3-yl)thio)ethyl)-6-((tetrahydrofuran-3-yl)amino)pyridin-2-yl)-4-(trifluoromethyl)isoindolin-1-one] are 3 to 10 µM, no more than 10 µM and 3 to 10 µM.
`CNc1cc(C(C)Sc2nncn2C)cc(N2Cc3c(cccc3C(F)(F)F)C2=O)n1` (stereo not shown) [Compound 180, 2-[6-(methylamino)-4-[1-[(4-methyl-1,2,4-triazol-3-yl)sulfanyl]ethyl]-2-pyridyl]-4-(trifluoromethyl)isoindolin-1-one] had a dissociation constant (Kd) in assay [1] of 1 to 3 µM. For the same molecule, the IC50 in assay [2] was no more than 10 µM; in assay [3] (setting [4]), 1 to 3 µM.
Take `Cn1cnnc1SC(CCO)c1cccc(NC(=O)c2cccc(C(F)(F)F)n2)c1` (stereo not shown) [Compound 181, N-(3-(3-hydroxy-1-((4-methyl-4H-1,2,4-triazol-3-yl)thio)propyl)phenyl)-6-(trifluoromethyl)picolinamide]: in assay [1], the Kd fell in the range of 3 to 10 µM. The figures for the IC50 in assay [2] and in assay [3] (setting [4]) were no more than 10 µM and 1 to 3 µM, respectively.
